We go through twelve molecules from US20250136614A1, “2,7-SUBSTITUTED PYRROLO[2,1-F][1,2,4]TRIAZINE COMPOUND HAVING PROTEIN KINASE INHIBITORY ACTIVITY” (Magicbullettherapeutics Co., Ltd., priority 2021, published 2025).

What all share (assay type): cell-based
One test concerns H1975. The test is described as follows: Cancer cell growth inhibition (CellTiter-Glo, 72 hours). To be noted: Homo sapiens, NCI-H1975, H1975 cells, read-out: GI50s (μM) H1975. On the procedure:
(§1) Seeding 3000 cells per well in a 96-well plate. After cell stabilization, treat the cells with compounds diluted in 0.5% DMSO at a ⅓ serial dilution and culture for 72 hours. Following treatment with CellTiter-Glo, luminescence is produced only in the presence of ATP, as luciferase degrades luciferin. Luminescence values were measured using Envision (PerkinElmer). Based on the measured luminescence values, the concentration of compounds causing cell death was calculated to determine the GI50 value.
(§2) The activity values were categorized into three levels • A: IC50<1 μM • B: 1 μM≤IC50<10 μM, • C: IC50≥10 μM
On the technique in general: ATP-based viability assays read luminescence as a measure of living cells.

The subject of a further test is H23. The test is described as above. To be noted: Homo sapiens, NCI-H23, H23 cells, read-out: GI50s (μM) H23. On the procedure:
as §1, §2

A further test deals with H358. The test is described as above. Conditions: Homo sapiens, NCI-H358, H358 cells, read-out: GI50s (μM) H358. On the procedure:
as §1, §2

Another test relates to HCT116. The test is described as above. Conditions: Homo sapiens, HCT-116, HCT116 cells, read-out: GI50s (μM) HCT116. On the procedure: as §1, §2
The test system of a further test is MDA-MB-231. Described as above. Conditions: Homo sapiens, MDA-MB-231 cells, read-out: GI50s (μM) MDA-MB-231. On the procedure: as §1, §2
The next test deals with colo205. Described as above. Conditions: Homo sapiens, COLO 205, colo205 cells, read-out: GI50s (μM) colo205. On the procedure: as §1, §2
In test [1] the target is T1, Ba/F3 FLT3 (ITD/D835YF691L) (Homo sapiens, UniProt P36888, F691L/D835Y, cells depend on it, form not given).
T1 sequence (P36888 1-993 F691L/D835Y): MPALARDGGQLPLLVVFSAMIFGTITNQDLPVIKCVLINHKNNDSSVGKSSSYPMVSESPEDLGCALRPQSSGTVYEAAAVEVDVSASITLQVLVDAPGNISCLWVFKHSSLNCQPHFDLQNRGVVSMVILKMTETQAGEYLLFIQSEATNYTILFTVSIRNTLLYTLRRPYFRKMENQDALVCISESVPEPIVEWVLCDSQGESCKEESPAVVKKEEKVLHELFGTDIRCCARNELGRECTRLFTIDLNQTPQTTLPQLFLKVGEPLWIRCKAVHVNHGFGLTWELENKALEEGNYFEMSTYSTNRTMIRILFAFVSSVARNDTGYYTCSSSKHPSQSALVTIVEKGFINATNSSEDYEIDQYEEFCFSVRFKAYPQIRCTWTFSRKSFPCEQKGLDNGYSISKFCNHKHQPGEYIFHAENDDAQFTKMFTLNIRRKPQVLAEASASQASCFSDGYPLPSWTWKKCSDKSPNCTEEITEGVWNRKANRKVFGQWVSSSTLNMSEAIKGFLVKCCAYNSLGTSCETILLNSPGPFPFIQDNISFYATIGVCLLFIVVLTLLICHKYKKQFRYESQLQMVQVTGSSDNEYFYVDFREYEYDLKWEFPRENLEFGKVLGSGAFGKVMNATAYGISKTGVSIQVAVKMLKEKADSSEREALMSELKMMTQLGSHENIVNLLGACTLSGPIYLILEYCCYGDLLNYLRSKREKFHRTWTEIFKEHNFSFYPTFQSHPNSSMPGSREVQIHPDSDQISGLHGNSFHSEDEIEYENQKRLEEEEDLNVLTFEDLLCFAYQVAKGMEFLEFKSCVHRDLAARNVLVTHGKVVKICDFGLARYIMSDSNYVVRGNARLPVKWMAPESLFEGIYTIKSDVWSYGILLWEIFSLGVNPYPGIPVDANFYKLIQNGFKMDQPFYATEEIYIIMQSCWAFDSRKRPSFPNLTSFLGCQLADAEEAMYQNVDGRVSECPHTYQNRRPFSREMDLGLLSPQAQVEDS
The test is described as follows: Ba/F3 cell growth inhibition (CellTiter-Glo, 72 hours). To be noted: read-out: Ba/F3 GI50s (μM) FLT3 (ITD/D835YF691L).

Turning to `O=C1COCCOc2ccc(cc2)-c2ccc3cnc(nn23)Nc2ccc(cc2)OCCCN1` [Example 28, (Z)-5,12,15-trioxa-3,9-diaza-2(7,2)-pyrrolo[2,1-f][1,2,4]triazina-1,4(1,4)-dibenzenacyclopentadecaphan-10-one], the IC50 in the test on H1975 is 1 to 10 µM; with H23, 1 to 10 µM; with H358 it was 1 to 10 µM; in the test with HCT116 it was 1 to 10 µM; in the test on MDA-MB-231 it was at least 10 µM; in the test with colo205 it was 1 to 10 µM. The GI50 in test [1] lay in the range of 1 to 10 µM.

Regarding `Cc1ncsc1-c1ccc(CNC(=O)[C@@H]2C[C@@H](O)CN2C(=O)[C@@H](NC(=O)CCOCCOCCN2CCN(c3ccc(Nc4ncc5ccc(-c6cccc(NS(C)(=O)=O)c6)n5n4)cc3)CC2)C(C)(C)C)cc1` [Example 84, (2S,4R)-1-((S)-3,3-dimethyl-2-(3-(2-(2-(4-(4-((7-(3-(methanesulfonamido)phenyl)pyrrolo[2,1-f][1,2,4]triazin-2-yl)amino)phenyl)piperazin-1-yl)ethoxy)ethoxy)propanamido)butanoyl)-4-hydroxy-N-(4-(4-methylthiazol-5-yl)benzyl)pyrrolidin-2-carboxamide], the IC50 in the test on H1975 is 1 to 10 µM; in the test on H23, 1 to 10 µM; in the test with H358 it was 1 to 10 µM; in the test on HCT116, 1 to 10 µM; with MDA-MB-231, at least 10 µM; in the test on colo205 it was at least 10 µM. In addition, the GI50 in test [1] was at least 10 µM.

On to `O=C1CCCCOc2ccc(cc2)-c2ccc3cnc(nn23)Nc2cnn(c2)CCCN1` [Example 36, (2^1Z,4^4E)-4^1H-14-oxa-3,8-diaza-2(7,2)-pyrrolo[2,1-f][1,2,4]triazina-4(4,1)-pyrazola-1(1,4)-benzenacyclotetradecaphan-9-one], for which the IC50 in the test with H1975 was 1 to 10 µM; in the test on H23 it was below 1 µM; in the test with H358 it was 1 to 10 µM; with HCT116, below 1 µM; in the test with MDA-MB-231, at least 10 µM; with colo205 it was 1 to 10 µM. In addition, the GI50 in test [1] was below 1 µM.

In the case of `O=C1CCCCCCOc2ccc(cc2)-c2ccc3cnc(nn23)Nc2cnn(c2)C2CCN(CCCN1)CC2` [Example 27, (2^1Z,4^4E)-4^1H-17-oxa-3,9-diaza-2(7,2)-pyrrolo[2,1-f1][1,2,4]triazina-5(4,1)-piperidina-4(4,1)-pyrazola-1(1,4)-benzenacycloheptadecaphan-10-one], the IC50 is at least 10 µM in the test with H1975; 1 to 10 µM with H23; 1 to 10 µM with H358; at least 10 µM with HCT116; 1 to 10 µM with MDA-MB-231; at least 10 µM with colo205. Moreover, the GI50 in test [1] is below 1 µM.

As for `CS(=O)(=O)Nc1cccc(-c2ccc3cnc(Nc4ccc(N5CCN(CCCCCCCCCCCOc6cccc7c6C(=O)N(C6CCC(=O)NC6=O)C7=O)CC5)cc4)nn23)c1` (stereo not drawn) [Example 42], the IC50 in the test on H1975, in the test with H23, in the test with H358, with HCT116, in the test with MDA-MB-231 and with colo205 was at least 10 µM throughout. Moreover, in test [1], the GI50 was 1 to 10 µM.

For the molecule `Cc1ncsc1-c1ccc(CNC(=O)[C@@H]2C[C@@H](O)CN2C(=O)[C@@H](NC(=O)COCCN2CCN(c3ccc(Nc4ncc5ccc(-c6cccc(NS(C)(=O)=O)c6)n5n4)cc3)CC2)C(C)(C)C)cc1` [Example 83, (2S,4R)-1-((S)-3,3-dimethyl-2-(2-(2-(4-(4-((7-(3-(methanesulfonamido)phenyl)pyrrolo[2,1-f][1,2,4]triazin-2-yl)amino)phenyl)piperazin-1-yl)ethoxy)acetaamino)butanoyl)-4-hydroxy-N-(4-(4-methylthiazol-5-yl)benzyl)pyrrolidin-2-carboxamide], the IC50 is 1 to 10 µM in the test on H1975; 1 to 10 µM in the test on H23; 1 to 10 µM with H358; 1 to 10 µM in the test with HCT116; at least 10 µM in the test with MDA-MB-231; at least 10 µM in the test on colo205. Also, in test [1], the GI50 is at least 10 µM.

For the molecule `COc1cc2ccc1Nc1ncc3ccc(n3n1)-c1ccc(cc1)OCCOCC(=O)NCCCO2` [Example 34, (Z)-42-methoxy-5,12,15-trioxa-3,9-diaza-2(7,2)-pyrrolo[2,1-f][1,2,4]triazina-1,4(1,4)-dibenzenacyclopentadecaphan-10-one], the IC50 is at least 10 µM in the test with H1975; at least 10 µM with H23; at least 10 µM in the test with H358; at least 10 µM in the test on HCT116; 1 to 10 µM in the test on MDA-MB-231; at least 10 µM in the test with colo205. Also, in test [1], the GI50 fell in the range of 1 to 10 µM.

Regarding `COc1cccc(NC(=O)N2CCCn3cc(cn3)Nc3ncc4ccc(n4n3)-c3ccc(cc3)OCC2)c1` [Example 7, (2^1Z,4^4E)-N-(3-methoxyphenyl)-4^1H-11-oxa-3,8-diaza-2(7,2)-pyrrolo[2,1-f][1,2,4]triazina-4(4,1)-pyrazola-1(1,4)-benzenecycloundecaphane-8-carboxamide], the IC50 with H1975 was 1 to 10 µM; in the test with H23, 1 to 10 µM; in the test with H358, 1 to 10 µM; with HCT116 it was 1 to 10 µM; in the test on MDA-MB-231, at least 10 µM; in the test on colo205 it was at least 10 µM. In addition, the GI50 in test [1] fell in the range of 1 to 10 µM.

As for `O=C1CCCCCCOc2ccc(cc2)-c2ccc3cnc(nn23)Nc2ccc(cc2)N2CCN(CCCN1)CC2` [Example 23, (Z)-17-oxa-3,9-diaza-2(7,2)-pyrrolo[2,1-f][1,2,4]triazina-5(1,4)-piperazina-1,4(1,4)-dibenzenacycloheptadecaphan-10-one], the IC50 in the test with H1975 is 1 to 10 µM; in the test on H23 it was below 1 µM; in the test with H358, 1 to 10 µM; with HCT116, 1 to 10 µM; with MDA-MB-231, at least 10 µM; in the test with colo205, 1 to 10 µM. For the same molecule, in test [1], the GI50 lay in the range of 1 to 10 µM.

Take `O=C1CCCCCCOc2ccc(cc2)-c2ccc3cnc(nn23)Nc2ccc(cc2)N2CCN1CC2` [Example 24, (Z)-13-oxa-3-aza-2(7,2)-pyrrolo[2,1-f][1,2,4]triazina-5(1,4)-piperazina-1,4(1,4)-dibenzenacyclotridecaphan-6-one]: the IC50 in the test with H1975 is 1 to 10 µM; in the test on H23, 1 to 10 µM; in the test with H358 it was 1 to 10 µM; with HCT116, 1 to 10 µM; in the test on MDA-MB-231 it was at least 10 µM; in the test on colo205, 1 to 10 µM. In test [1], the GI50 was at least 10 µM.

Turning to `CS(=O)(=O)Nc1cccc(-c2ccc3cnc(Nc4ccc(N5CCN(CCCOc6cccc7c6C(=O)N(C6CCC(=O)NC6=O)C7=O)CC5)cc4)nn23)c1` (stereo not drawn) [Example 40], the IC50 is at least 10 µM in the test on H1975; at least 10 µM in the test with H23; at least 10 µM in the test on H358; 1 to 10 µM in the test with HCT116; at least 10 µM in the test on MDA-MB-231; at least 10 µM with colo205. Also, the GI50 in test [1] was below 1 µM.

Turning to `O=C1CCCCCCn2cc(cn2)-c2ccc3cnc(nn23)Nc2ccc(cc2)OCCCN1` [Example 17, (1^4Z,2^1Z)-1′H-5-oxa-3,9-diaza-2(7,2)-pyrrolo[2,1-f][1,2,4]triazina-1(4,1)-pyrazola-4(1,4)-benzenacyclohexadecaphan-10-one], the IC50 was 1 to 10 µM in the test on H1975; 1 to 10 µM with H23; at least 10 µM with H358; 1 to 10 µM in the test on HCT116; at least 10 µM with MDA-MB-231; at least 10 µM with colo205. Further, the GI50 in test [1] was 1 to 10 µM.
